test system: central benzodiazepine receptors; experiment: Central benzodiazepine receptor binding (test of Speth et al.); settings: 1000 nM of the compound
Description: Compounds of the invention were assessed for their binding to the benzodiazepine receptor by the test of Speth et al. [Life Sci. 24, 351 (1979)] for central benzodiazepine receptors and LeFur et al. [Life Sci. 33, 449 (1983)] for peripheral receptors. The compounds were tested first at 1.0E-09, 1.0E-07 and 1.0E-05 M in single determination. […] The specific ligand binding to the receptor is defined as the difference between the total binding and the nonspecific binding determined in the presence of an excess of unlabelled ligand. In each experiment, the respective reference compound was tested concurrently with the test compounds in order to assess the assay suitability. It was tested at several concentrations (for IC50 value determination), and the data were compared with historical values. The assay was rendered valid if suitability criteria were met.
BZD central binding data for the compounds is provided in Table 3, wherein is provided the percent inhibition of central BZD in the presence of 1000 nM of the compound.

Row | SMILES | % Inhibition at 1000 nM for CBZD
1 | CCNc1ccn(Cc2c(-c3ccc(Cl)cc3)nc3ccccn23)c(=O)n1 [Compound 132, 1-((2-(4-chlorophenyl)imidazo[1,2-a]pyridin-3-yl)methyl)-4-(ethylamino)pyrimidin-2(1H)-one] | ++ (percentage of inhibition of central BZD site binding is greater than 80% in the presence of 1000 nM of the compound)
2 | O=C1CCCN1Cc1c(-c2ccc(Cl)cc2)nc2ccc(Cl)cn12 [Compound 112, 1-((6-chloro-2-(4-chlorophenyl)H-imidazo[1,2-a]pyridin-3-yl)methyl)pyrrolidin-2-one] | ++ (percentage of inhibition of central BZD site binding is greater than 80% in the presence of 1000 nM of the compound)
3 | Cc1ccc(-c2nc3ccc(C)cn3c2Cn2cnc3ccccc32)cc1 [Compound 16, 1-((6-Methyl-2-p-tolyl-H-imidazo[1,2-a]pyridin-3-yl)methyl)-1H-benzo[d]imidazole] | ++ (percentage of inhibition of central BZD site binding is greater than 80% in the presence of 1000 nM of the compound)
4 | Fc1cc(F)nc(NCc2c(-c3ccccc3)nc3ccccn23)n1 [Compound 164, 4,6-difluoro-N-((2-phenylimidazo[1,2-a]pyridin-3-yl)methyl)pyrimidin-2-amine] | ++ (percentage of inhibition of central BZD site binding is greater than 80% in the presence of 1000 nM of the compound)
5 | Cc1ccc(-c2nc3ccc(C)cn3c2CN2C(=O)CN(C)C2=O)cc1 [Compound 102, 1-methyl-3-((6-methyl-2-p-tolylH-imidazo[1,2-a]pyridin-3-yl)methyl)imidazolidine-2,4-dione] | + (percentage of inhibition of central BZD site binding is greater than 50% but less than 80% in the presence of 1000 nM of the compound)
6 | Cc1ccc(-c2nc3ccc(C)cn3c2CSc2nc(C)cc(C)n2)cc1 [Compound 181, 3-((4,6-dimethylpyrimidin-2-ylthio)methyl)-6-methyl-2-p-tolylH-imidazo[1,2-a]pyridine] | ++ (percentage of inhibition of central BZD site binding is greater than 80% in the presence of 1000 nM of the compound)
7 | COC(=O)c1cn(Cc2c(-c3ccc(Cl)cc3)nc3ccccn23)c2ccccc12 [Compound 38, Methyl 1-((2-(4-chlorophenyl)imidazo[1,2-a]pyridin-3-yl)methyl)-1H-indole-3-carboxylate] | ++ (percentage of inhibition of central BZD site binding is greater than 80% in the presence of 1000 nM of the compound)
8 | CC(C)c1nnc(Cc2c(-c3ccccc3)nc3ccc(Cl)cn23)[nH]1 [Compound 232, 6-chloro-3-((5-isopropyl-4H-1,2,4-triazol-3-yl)methyl)-2-phenylimidazo[1,2-a]pyridine] | ++ (percentage of inhibition of central BZD site binding is greater than 80% in the presence of 1000 nM of the compound)
9 | O=c1ccccn1Cc1c(-c2ccc(Cl)cc2)nc2ccc(Cl)cn12 [Compound 104, 1-((6-chloro-2-(4-chlorophenyl)H-imidazo[1,2-a]pyridin-3-yl)methyl)pyridin-2(1H)-one] | ++ (percentage of inhibition of central BZD site binding is greater than 80% in the presence of 1000 nM of the compound)
10 | O=C1C=C(N2CCC(O)CC2)CN1Cc1c(-c2ccc(Cl)cc2)nc2ccccn12 [Compound 241, 1-((2-(4-chlorophenyl)imidazo[1,2-a]pyridin-3-yl)methyl)-4-(4-hydroxypiperidin-1-yl)-1H-pyrrol-2(5H)-one] | ++ (percentage of inhibition of central BZD site binding is greater than 80% in the presence of 1000 nM of the compound)
11 | Cc1ccc(-c2nc3ccc(C)cn3c2CSc2ccccc2)cc1 [Compound 163, 6-Methyl-3-phenylsulfanylmethyl-2-p-tolyl-imidazo[1,2-a]pyridine] | ++ (percentage of inhibition of central BZD site binding is greater than 80% in the presence of 1000 nM of the compound)
12 | Cc1ccc(-c2nc3ccc(C)cn3c2CNc2ncncn2)cc1 [Compound 146, (6-Methyl-2-p-tolyl-imidazo[1,2-a]pyridin-3-ylmethyl)-[1,3,5]triazin-2-yl-amine] | ++ (percentage of inhibition of central BZD site binding is greater than 80% in the presence of 1000 nM of the compound)
13 | CCOC(=O)c1nccn1Cc1c(-c2ccc(Cl)cc2)nc2ccc(Cl)cn12 [Compound 22, 1-[6-Chloro-2-(4-chloro-phenyl)-imidazo[1,2-a]pyridin-3-ylmethyl]-1H-imidazole-2-carboxylic acid ethyl ester] | ++ (percentage of inhibition of central BZD site binding is greater than 80% in the presence of 1000 nM of the compound)
14 | c1ccc(-c2nc3ccccn3c2Cn2ccnn2)cc1 [Compound 50, 3-((1H-1,2,3-triazol-1-yl)methyl)-2-phenylH-imidazo[1,2-a]pyridine] | + (percentage of inhibition of central BZD site binding is greater than 50% but less than 80% in the presence of 1000 nM of the compound)
15 | Cc1ccc(-c2nc3ccc(C)cn3c2Cn2ccnc2-c2ccccc2)cc1 [Compound 13, 6-Methyl-3-((2-phenyl-1H-imidazol-1-yl)methyl)-2-p-tolylH-imidazo[1,2-a]pyridine] | + (percentage of inhibition of central BZD site binding is greater than 50% but less than 80% in the presence of 1000 nM of the compound)
16 | Clc1ccc(-c2nc3ccccn3c2Cc2cncc(OC3CCNC3)n2)cc1 (stereo not drawn) [Compound 186, 2-(4-chlorophenyl)-3-((6-(pyrrolidin-3-yloxy)pyrazin-2-yl)methyl)imidazo[1,2-a]pyridine] | ++ (percentage of inhibition of central BZD site binding is greater than 80% in the presence of 1000 nM of the compound)
17 | O=c1ccc(Cl)cn1Cc1c(-c2ccc(Cl)cc2)nc2ccc(Cl)cn12 [Compound 108, 5-chloro-1-((6-chloro-2-(4-chlorophenyl)H-imidazo[1,2-a]pyridin-3-yl)methyl)pyridin-2(1H)-one] | ++ (percentage of inhibition of central BZD site binding is greater than 80% in the presence of 1000 nM of the compound)
18 | Cc1ccc2nc(-c3ccc(Cl)cc3)c(Cc3nnc(C)o3)n2c1 [Compound 203, 2-((2-(4-chlorophenyl)-6-methylimidazo[1,2-a]pyridin-3-yl)methyl)-5-methyl-1,3,4-oxadiazole] | ++ (percentage of inhibition of central BZD site binding is greater than 80% in the presence of 1000 nM of the compound)
19 | COC(=O)C1Cc2ccccc2N1Cc1c(-c2ccc(Cl)cc2)nc2ccccn12 (stereo not drawn) [Compound 35, Methyl 1-((2-(4-chlorophenyl)imidazo[1,2-a]pyridin-3-yl)methyl)indoline-2-carboxylate] | + (percentage of inhibition of central BZD site binding is greater than 50% but less than 80% in the presence of 1000 nM of the compound)
20 | Cc1ccc(-c2nc3c(Cl)cc(Cl)cn3c2Cn2cccn2)cc1 [Compound 65, 3-((1H-pyrazol-1-yl)methyl)-6,8-dichloro-2-p-tolylimidazo[1,2-a]pyridine] | ++ (percentage of inhibition of central BZD site binding is greater than 80% in the presence of 1000 nM of the compound)
21 | CN(C)C(=O)c1ncnn1Cc1c(-c2ccc(Cl)cc2)nc2ccccn12 [Compound 74, 1-((2-(4-chlorophenyl)imidazo[1,2-a]pyridin-3-yl)methyl)-N,N-dimethyl-1H-1,2,4-triazole-5-carboxamide] | ++ (percentage of inhibition of central BZD site binding is greater than 80% in the presence of 1000 nM of the compound)
22 | O=C1CCN1Cc1c(-c2ccc(Cl)cc2)nc2ccc(Cl)cn12 [Compound 113, 1-[6-Chloro-2-(4-chloro-phenyl)-imidazo[1,2-a]pyridin-3-ylmethyl]-azetidin-2-one] | ++ (percentage of inhibition of central BZD site binding is greater than 80% in the presence of 1000 nM of the compound)
23 | Cc1ccc(-c2nc3ccc(C)cn3c2CNc2nc(C)cc(C)n2)cc1 [Compound 148, 4,6-dimethyl-N-((6-methyl-2-p-tolylH-imidazo[1,2-a]pyridin-3-yl)methyl)pyrimidin-2-amine] | ++ (percentage of inhibition of central BZD site binding is greater than 80% in the presence of 1000 nM of the compound)
24 | CC(C)(C)OC(=O)N1CCCC1c1ccnc(NCc2c(-c3ccc(F)cc3)nc3ccc(Cl)cn23)n1 (stereo not drawn) [Compound 194, Tert-butyl 2-(2-((6-chloro-2-(4-fluorophenyl)imidazo[1,2-a]pyridin-3-yl)methylamino)pyrimidin-4-yl)pyrrolidine-1-carboxylate] | + (percentage of inhibition of central BZD site binding is greater than 50% but less than 80% in the presence of 1000 nM of the compound)
25 | Fc1ccc(-c2nc3ccccn3c2Cn2cncn2)cc1 [Compound 54, 3-((1H-1,2,4-triazol-1-yl)methyl)-2-(4-fluorophenyl)H-imidazo[1,2-a]pyridine] | ++ (percentage of inhibition of central BZD site binding is greater than 80% in the presence of 1000 nM of the compound)
26 | Cc1ccc(-c2nc3c(Cl)cc(Cl)cn3c2Cn2nc(C)ccc2=O)cc1 [Compound 117, 2-(6,8-Dichloro-2-p-tolyl-imidazo[1,2-a]pyridin-3-ylmethyl)-6-methyl-2H-pyridazin-3-one] | ++ (percentage of inhibition of central BZD site binding is greater than 80% in the presence of 1000 nM of the compound)
27 | Cc1ccc(-c2nc3ccc(C)cn3c2CSc2cccs2)cc1 [Compound 178, 6-Methyl-3-(thiophen-2-ylsulfanylmethyl)-2-p-tolyl-imidazo[1,2-a]pyridine] | + (percentage of inhibition of central BZD site binding is greater than 50% but less than 80% in the presence of 1000 nM of the compound)

Source: patent US8497278B2, “Imidazo[1,2-a]pyridine compounds” (priority 2008, dated 2013)
